Patent publication US8003766B2, “Monoclonal antibody specific to ochratoxin A” (priority 2009, dated 2011)

Experiments:
9C9H9 mAb (anti-OTA mAb) [1] = test: direct competitive ELISA (cdELISA); assay type: binding, mouse; details: for concentrations causing 50% inhibition (IC50) binding of mAb to OTA-OVA by free toxin: FIG. 2A
Procedure: (§1) Both the cdELISA (direct competitive ELISA) and ciELISA (indirect competitive ELISA) were used to determine the specificity of 9C9H9 mAb.
Another ELISA method (direct competitive ELISA) was used to characterize mAb. The rabbit anti-mouse-Fc antibody was diluted in PBS (2 μg/mL), and 0.1 mL of the diluted form was coated onto each well. After incubation at 37° C. for 1 h and washing with Tween-PBS. The anti-OTA mAb supernatant was diluted in PBS (5 μg/mL) and 0.1 mL of the diluted form was used to coat each well. After the plate had been incubated at 4° C. overnight, it was washed with Tween-PBS followed by blocking with gelatin-PBS at 37° C. for 30 min. The plate was washed again with Tween-PBS four times, and then OTA standard (0.05 mL/well in PBS) concentrations from 0.01 to 100 ng/mL or samples together with the OTA-HRP conjugate (30 ng/mL, in PBS, 0.05 mL/well) were added and incubated at 37° C. for 50 min. The plate was washed four times with PBS-Tween, and 0.1 mL of TMB substrate solution was added. After incubation at room temperature in the dark for 10 min, the reaction was terminated by adding 0.1 mL of 1 N HCl. The absorbance at 450 nm was determined in the Vmax automatic ELISA reader.

9C9H9 mAb (anti-OTA mAb) [2] = test: indirect competitive ELISA (ciELISA); assay type: binding, mouse; details: for IC50 of binding of mAb to OTA-OVA by free toxin: OTA-OVA coated as solid-phase antigen, FIG. 2B
Procedure: as §1
Indirect Competitive ELISA was than used to characterize each mAb. Briefly, each well of a microtiter plate was coated with 0.1 mL of the OTA-OVA and kept at 4° C. overnight. After the plate had been washed four times with Tween-PBS (0.35 mL/well; 0.05% Tween 20 in PBS) using an automated ELISA washer, 0.17 mL of gelatin-PBS (0.17 mL/well; 0.1% gelatin in PBS) was added and allowed to incubate at 37° C. for 30 min. The plate was washed again and 0.05 mL of OTA standard with concentrations from 0.01 to 100 ng/mL or extracted samples (0.05 mL/well in PBS) were added to each well, and then the anti-OTA mAb (25 ng/mL in PBS, 0.05 mL/well) was added to all wells and incubated at 37° C. for 50 min. After incubation, the plate was washed four times with Tween-PBS, and 0.1 mL of goat antimouse IgG-HRP conjugate (1:20000 dilution) was added and incubated at 37° C. for 45 min. The plate was washed four times with Tween-PBS, and 0.1 mL of TMB substrate solution was added. After 10 min of incubation at room temperature, 0.1 mL of 1 N hydrochloric acid was added to stop the reaction. Absorbance at 450 nm was determined in a Vmax automatic ELISA reader.

[3] = at a concentration as high as 100 μg/mL

C[C@@H]1Cc2ccc(C(=O)N[C@@H](Cc3ccccc3)C(=O)O)c(O)c2C(=O)O1 [OTB, ochratoxin B]
concentrations causing 50% inhibition (IC50) binding of mAb to OTA-OVA by free toxin (9C9H9 mAb (anti-OTA mAb) [1]): 0.17 ng/mL
IC50 of binding of mAb to OTA-OVA by free toxin (9C9H9 mAb (anti-OTA mAb) [2]): 0.35 ng/mL

N[C@@H](Cc1ccccc1)C(=O)O [phenylalanine]
inhibition of the binding of mAb to the marker antigen (OTA-HRP) (9C9H9 mAb (anti-OTA mAb) [1]; [3]): did not inhibit
inhibition of the binding of mAb to the marker antigen (OTA-OVA) (9C9H9 mAb (anti-OTA mAb) [2]; [3]): did not inhibit

CCOC(=O)[C@H](Cc1ccccc1)NC(=O)c1cc(Cl)c2c(c1O)C(=O)O[C@H](C)C2 [OTC, ochratoxin C]
concentrations causing 50% inhibition (IC50) binding of mAb to OTA-OVA by free toxin (9C9H9 mAb (anti-OTA mAb) [1]): 0.28 ng/mL
IC50 of binding of mAb to OTA-OVA by free toxin (9C9H9 mAb (anti-OTA mAb) [2]): 0.25 ng/mL

C[C@@H]1Cc2c(Cl)cc(C(=O)N[C@@H](Cc3ccccc3)C(=O)O)c(O)c2C(=O)O1 [OTA, ochratoxin A]
concentrations causing 50% inhibition (IC50) binding of mAb to OTA-OVA by free toxin (9C9H9 mAb (anti-OTA mAb) [1]): 0.32 ng/mL
IC50 of binding of mAb to OTA-OVA by free toxin (9C9H9 mAb (anti-OTA mAb) [2]): 0.28 ng/mL
